Here are results for two compounds from patent US5079152A, “Antibody combining sites that exhibit stereoselective synthase activity, and methods using the same” (Scripps Clinic and Research Foundation, priority 1987, dated 1992).

The structures appear in SMILES notation. Like-named read-outs stand apart in the source and are kept apart here.

The subject of the experiment is monoclonal antibody 24B11 (receptor lactone synthase secreted by hybridoma 24B11, ATCC HB9488). As to the kind of experiment: Kinetics of lactone-forming cyclization catalyzed by monoclonal receptor lactone synthase 24B11 (phenol release at 271 nm, Lineweaver-Burk). In kind it is biochemical, mouse.

Regarding `CC(=O)NCC(O)CCCC(=O)Oc1ccccc1` (racemic) [phenyl 6-acetamido-5-hydroxyhexanoate], the kcat / kuncat (catalyzed versus uncatalyzed first order cyclization rate constant) came to 167. For the same compound, the rate acceleration (presence versus absence of the catalytic lactone synthase molecule) came to 167 fold. Moreover, under “racemic substrate ligand 20-100 uM, receptor 2 uM, 25 mM phosphate buffer pH 7.0, 25 degrees C, read-out: Km”, the Km is 76 µM. Besides, the kcat (receptor 2 uM (IgG, 150,000 daltons), pH 7.0, 25 degrees C) stood at 0.50 L/min. Further, the Vmax (receptor 2 uM, substrate 20-100 uM, pH 7.0, 25 degrees C) is 0.99 µM/min.

`CC(=O)NCC(O)CCCC(=O)Oc1ccccc1` (single isomer, unassigned) [reactive enantiomer of the substrate ligand]: where the note is “in the absence of binding by the unreactive enantiomer, read-out: Km for the reactive enantiomer of the substrate ligand”, the Km was around 38 µM.
